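Growth conditions: 96-well plates. Treatment: test compound, 48 hours, 5 concentrations. Analysis: linear interpolation between bracketing concentrations; unreached endpoints set to highest concentration. Abbreviation: GI50, concentration required for 50% inhibition of growth.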 Active and inactive are the calls of the source. Rule as the data show it: active = GI50 up to about 1.1 µM and inactive = higher.
Tests used:
Experiment in all cases: inhibition of tumour cell growth, NCI panel, 48 h
UACC-62 = test system: UACC-62
HCT-15 = test system: HCT-15
786-0 = test system: 786-0
OVCAR-4 = test system: OVCAR-4
K562 = test system: K562
LOX IMVI = test system: LOX IMVI
M14 = test system: M14
MCF7 = test system: MCF7
SF-295 = test system: SF-295
SK-OV-3 = test system: SK-OV-3
HCC 2998 = test system: HCC 2998
CCRF-CEM = test system: CCRF-CEM
RPMI-8226 = test system: RPMI-8226
OVCAR-3 = test system: OVCAR-3
HL-60 = test system: HL-60
NCI-H226 = test system: NCI-H226
HOP-92 = test system: HOP-92
HT-29 = test system: HT-29
SK-MEL-28 = test system: SK-MEL-28
SK-MEL-2 = test system: SK-MEL-2

SMILES: CC(=O)[C@H]1CC[C@@H]2[C@]1(C)CC=C1[C@]23C=C[C@]2(C[C@@H](O)CC[C@]12C)C(C(=O)O)C3C(=O)O (stereo not given in full)
- GI50 (UACC-62): > 100 µM (inactive)
- GI50 (HCT-15): > 100 µM
- GI50 (786-0): > 100 µM (inactive)
- GI50 (OVCAR-4): > 100 µM (inactive)
- GI50 (K562): > 100 µM (inactive)
- GI50 (LOX IMVI): > 100 µM (inactive)
- GI50 (M14): > 100 µM (inactive)
- GI50 (MCF7): > 100 µM (inactive)
- GI50 (SF-295): > 100 µM (inactive)
- GI50 (SK-OV-3): > 100 µM (inactive)
- GI50 (HCC 2998): > 100 µM (inactive)
- GI50 (CCRF-CEM): > 100 µM (inactive)
- GI50 (RPMI-8226): > 100 µM (inactive)
- GI50 (OVCAR-3): > 100 µM (inactive)
- GI50 (HL-60): > 100 µM (inactive)
- GI50 (NCI-H226): > 100 µM (inactive)
- GI50 (HOP-92): > 100 µM (inactive)
- GI50 (HT-29): > 100 µM (inactive)
- GI50 (SK-MEL-28): > 100 µM (inactive)
- GI50 (SK-MEL-2): > 100 µM (inactive)

SMILES: Oc1ccc(C(=C(Br)c2ccccc2)c2ccc(O)cc2)cc1
- GI50 (UACC-62): 8.47 µM (inactive)
- GI50 (HCT-15): 3.72 µM
- GI50 (786-0): 9.77 µM (inactive)
- GI50 (OVCAR-4): > 10 µM (inactive)
- GI50 (K562): 2.78 µM (inactive)
- GI50 (LOX IMVI): 4.08 µM (inactive)
- GI50 (M14): 4.15 µM (inactive)
- GI50 (MCF7): 3.13 µM (inactive)
- GI50 (SF-295): 6.14 µM (inactive)
- GI50 (SK-OV-3): 5.01 µM (inactive)
- GI50 (HCC 2998): 8.65 µM (inactive)
- GI50 (CCRF-CEM): 7.52 µM (inactive)
- GI50 (RPMI-8226): 4.66 µM (inactive)
- GI50 (OVCAR-3): 3.15 µM (inactive)
- GI50 (HL-60): 3.39 µM (inactive)
- GI50 (NCI-H226): 15.8 µM (inactive)
- GI50 (HOP-92): 10 µM (inactive)
- GI50 (HT-29): 1.91 µM (inactive)
- GI50 (SK-MEL-28): 10.4 µM (inactive)
- GI50 (SK-MEL-2): 5.74 µM (inactive)

Source: ChEMBL document CHEMBL1201862, “PubChem BioAssay data set” (2004)
